{"source": "patent US8637525B2", "about": "“Compounds for the reduction of beta-amyloid production” (Bristol-Myers Squibb Company, priority 2009, dated 2014)", "test_system": "Aβ1-42 production", "assay": "Cellular assay for inhibition of Aβ1-42 production (H4 APP751 SWE clone 8.20)", "assay_type": "cell-based", "conditions": "H4 APP751 SWE clone 8.20 cells, 19 h incubation", "how_it_was_run": "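Compound-treated cells were incubated 19 h at 37 °C in 5% CO2. Aβ42 in the cell plate was detected overnight at 4 °C with an Aβ42 neoepitope antibody (565, Wallac-labelled, 0.8 ng/well) plus N-terminal antibody 26D6 (APC, 75 ng/well) in 40 mM Tris-HCl pH 7.4, 0.2% BSA. IC50s came from curve fitting.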", "key": {"[1]": {"conditions": "19 h, class symbols, read-out: Activity Rating (Aβ42 cellular IC50)"}, "[2]": {"conditions": "19 h, read-out: Activity Rating (Aβ42 cellular IC50), numeric value"}, "[3]": {"conditions": "class symbols, read-out: Activity Rating (Aβ42 cellular IC50)"}}, "note": "Structures can show the parent of a compound that is named as a salt. Where two headings read alike, the source gives them in different places."}
{"molecule": "COc1cc(Nc2nc3c(c(N4CC(F)(F)C4)n2)COCC3c2ccc(Cl)cc2)ccc1-n1cnc(Cl)c1", "note": "(stereo not shown) [Example 66, N-(4-(4-chloro-1H-imidazol-1-yl)-3-methoxyphenyl)-8-(4-chlorophenyl)-4-(3,3-difluoroazetidin-1-yl)-7,8-dihydro-5H-pyrano[4,3-d]pyrimidin-2-amine]", "values": [{"measurement": "IC50", "setting": "[1]", "result": "10 to 100", "unit": "nM"}]}
{"molecule": "Cc1ncnn1-c1ccc(Nc2nc3c(c(N(C)C)n2)COCC3c2ccc(Cl)cc2)cc1F", "note": "(stereo not shown) [Example 67, 8-(4-chlorophenyl)-N^2-(3-fluoro-4-(5-methyl-1H-1,2,4-triazol-1-yl)phenyl)-N^4,N^4-dimethyl-7,8-dihydro-5H-pyrano[4,3-d]pyrimidine-2,4-diamine]", "values": [{"measurement": "IC50", "setting": "[1]", "result": "10 to 100", "unit": "nM"}]}
{"molecule": "Cc1ncnn1-c1ccc(Nc2nc3c(c(N4CC(F)(F)C4)n2)COCC3c2ccc(Cl)cc2)cc1F", "note": "(stereo not shown) [Example 68, 8-(4-chlorophenyl)-4-(3,3-difluoroazetidin-1-yl)-N-(3-fluoro-4-(5-methyl-1H-1,2,4-triazol-1-yl)phenyl)-7,8-dihydro-5H-pyrano[4,3-d]pyrimidin-2-amine]", "values": [{"measurement": "IC50", "setting": "[1]", "result": "10 to 100", "unit": "nM"}]}
{"molecule": "CNc1nc(Nc2ccc(-n3ncnc3C)c(F)c2)nc2c1COCC2c1ccc(Cl)cc1", "note": "(stereo not shown) [Example 69, 8-(4-chlorophenyl)-N^2-(3-fluoro-4-(5-methyl-1H-1,2,4-triazol-1-yl)phenyl)-N^4-methyl-7,8-dihydro-5H-pyrano[4,3-d]pyrimidine-2,4-diamine]", "values": [{"measurement": "IC50", "setting": "[1]", "result": "10 to 100", "unit": "nM"}]}
{"molecule": "CNc1nc(Nc2ccc(-n3cnc(C)c3)c(OC)c2)nc2c1COCC2c1ccc(Cl)cc1", "note": "(stereo not shown) [Example 70, 8-(4-chlorophenyl)-N^2-(3-methoxy-4-(4-methyl-1H-imidazol-1-yl)phenyl)-N^4-methyl-7,8-dihydro-5H-pyrano[4,3-d]pyrimidine-2,4-diamine]", "values": [{"measurement": "IC50", "setting": "[1]", "result": "1.5 to 9.9", "unit": "nM"}]}
{"molecule": "CNc1nc(Nc2ccc(-n3cnc(C)n3)c(OC)c2)nc2c1COCC2c1ccc(Cl)cc1", "note": "(stereo not shown) [Example 71, 8-(4-chlorophenyl)-N^2-(3-methoxy-4-(3-methyl-1H-1,2,4-triazol-1-yl)phenyl)-N^4-methyl-7,8-dihydro-5H-pyrano[4,3-d]pyrimidine-2,4-diamine]", "values": [{"measurement": "IC50", "setting": "[1]", "result": "10 to 100", "unit": "nM"}]}
{"molecule": "CNc1nc(Nc2ccc(-n3cnc(Cl)c3)c(OC)c2)nc2c1COCC2c1ccc(Br)cc1", "note": "(stereo not shown) [Example 72, 8-(4-bromophenyl)-N^2-(4-(4-chloro-1H-imidazol-1-yl)-3-methoxyphenyl)-N^4-methyl-7,8-dihydro-5H-pyrano[4,3-d]pyrimidine-2,4-diamine]", "values": [{"measurement": "IC50", "setting": "[1]", "result": "1.5 to 9.9", "unit": "nM"}]}
{"molecule": "CNc1nc(Nc2ccc(-n3ncnc3C)c(F)c2)nc2c1COCC2c1ccc(Br)cc1", "note": "(stereo not shown) [Example 73, 8-(4-bromophenyl)-N^2-(3-fluoro-4-(5-methyl-1H-1,2,4-triazol-1-yl)phenyl)-N^4-methyl-7,8-dihydro-5H-pyrano[4,3-d]pyrimidine-2,4-diamine]", "values": [{"measurement": "IC50", "setting": "[2]", "result": 3.8, "unit": "nM"}]}
{"molecule": "CCNc1nc(Nc2ccc(-n3cnc(Cl)c3)c(OC)c2)nc2c1COC2c1ccc(F)cc1", "note": "(stereo not shown) [Example 75, N^2-(4-(4-chloro-1H-imidazol-1-yl)-3-methoxyphenyl)-N^4-ethyl-7-(4-fluorophenyl)-5,7-dihydrofuro[3,4-d]pyrimidine-2,4-diamine]", "values": [{"measurement": "IC50", "setting": "[1]", "result": "10 to 100", "unit": "nM"}]}
{"molecule": "CCNc1nc(Nc2ccc(-n3ncnc3C)c(F)c2)nc2c1COC2c1ccc(F)cc1", "note": "(stereo not shown) [Example 78, N^4-ethyl-N^2-(3-fluoro-4-(5-methyl-1H-1,2,4-triazol-1-yl)phenyl)-7-(4-fluorophenyl)-5,7-dihydrofuro[3,4-d]pyrimidine-2,4-diamine]", "values": [{"measurement": "IC50", "setting": "[1]", "result": "10 to 100", "unit": "nM"}]}
{"molecule": "COc1cc(Nc2nc3c(c(N4CC(F)(F)C4)n2)COC3c2ccc(F)cc2)ccc1-n1cnc(Cl)c1", "note": "(stereo not shown) [Example 80A, N-(4-(4-chloro-1H-imidazol-1-yl)-3-methoxyphenyl)-4-(3,3-difluoroazetidin-1-yl)-7-(4-fluorophenyl)-5,7-dihydrofuro[3,4-d]pyrimidin-2-amine]", "values": [{"measurement": "IC50", "setting": "[1]", "result": "10 to 100", "unit": "nM"}]}
{"molecule": "COc1cc(Nc2nc(N[C@H](C)C3CC3)c3c(n2)C(c2ccc(F)cc2)OC3)ccc1-n1cnc(Cl)c1", "note": "(stereo partly drawn) [Example 81, N2-(4-(4-chloro-1H-imidazol-1-yl)-3-methoxyphenyl)-N4-((R)-1-cyclopropylethyl)-7-(4-fluorophenyl)-5,7-dihydrofuro[3,4-d]pyrimidine-2,4-diamine, TFA]", "values": [{"measurement": "IC50", "setting": "[1]", "result": "10 to 100", "unit": "nM"}]}
{"molecule": "CNc1nc(Nc2ccc(-n3ncnc3C)c(F)c2)nc2c1COC2c1ccc(F)cc1", "note": "(stereo not shown) [Example 82A, N2-(3-fluoro-4-(5-methyl-1H-1,2,4-triazol-1-yl)phenyl)-7-(4-fluorophenyl)-N4-methyl-5,7-dihydrofuro[3,4-d]pyrimidine-2,4-diamine]", "values": [{"measurement": "IC50", "setting": "[3]", "result": "1.5 to 9.9", "unit": "nM"}]}
{"molecule": "CNc1nc(Nc2ccc(-n3ncnc3C)c(F)c2)nc2c1COC2c1ccc(F)cc1", "note": "(stereo not shown) [Example 82B, N2-(3-fluoro-4-(5-methyl-1H-1,2,4-triazol-1-yl)phenyl)-7-(4-fluorophenyl)-N4-methyl-5,7-dihydrofuro[3,4-d]pyrimidine-2,4-diamine]", "values": [{"measurement": "IC50", "setting": "[3]", "result": "10 to 100", "unit": "nM"}]}
{"molecule": "COc1cc(Nc2nc3c(c(N4C[C@@H](C)O[C@@H](C)C4)n2)COC3c2ccc(F)cc2)ccc1-n1cnc(Cl)c1", "note": "(stereo partly drawn) [Example 84A, N-(4-(4-chloro-1H-imidazol-1-yl)-3-methoxyphenyl)-4-((2S,6R)-2,6-dimethylmorpholino)-7-(4-fluorophenyl)-5,7-dihydrofuro[3,4-d]pyrimidin-2-amine]", "values": [{"measurement": "IC50", "setting": "[1]", "result": "10 to 100", "unit": "nM"}]}
{"molecule": "COc1cc(Nc2nc3c(c(N4C[C@@H](C)O[C@@H](C)C4)n2)COC3c2ccc(F)cc2)ccc1-n1cnc(Cl)c1", "note": "(stereo partly drawn) [Example 84B, N-(4-(4-chloro-1H-imidazol-1-yl)-3-methoxyphenyl)-4-((2S,6R)-2,6-dimethylmorpholino)-7-(4-fluorophenyl)-5,7-dihydrofuro[3,4-d]pyrimidin-2-amine]", "values": [{"measurement": "IC50", "setting": "[2]", "result": 290, "unit": "nM"}]}
{"molecule": "CNc1nc(Nc2ccc(-n3cnc(Cl)c3)c(OC)c2)nc2c1CCOC2c1ccccc1", "note": "(stereo not shown) [Example 85, N2-(4-(4-chloro-1H-imidazol-1-yl)-3-methoxyphenyl)-N4-methyl-8-phenyl-6,8-dihydro-5H-pyrano[3,4-d]pyrimidine-2,4-diamine]", "values": [{"measurement": "IC50", "setting": "[1]", "result": "1.5 to 9.9", "unit": "nM"}]}
{"molecule": "CNc1nc(Nc2ccc(-n3cnc(C)n3)c(F)c2)nc2c1CCOC2c1ccccc1", "note": "(stereo not shown) [Example 86, N2-(3-fluoro-4-(3-methyl-1H-1,2,4-triazol-1-yl)phenyl)-N4-methyl-8-phenyl-6,8-dihydro-5H-pyrano[3,4-d]pyrimidine-2,4-diamine]", "values": [{"measurement": "IC50", "setting": "[1]", "result": "10 to 100", "unit": "nM"}]}
{"molecule": "CNc1nc(Nc2ccc(-n3ncnc3C)c(F)c2)nc2c1CCOC2c1ccccc1", "note": "(stereo not shown) [Example 87, N2-(3-fluoro-4-(5-methyl-1H-1,2,4-triazol-1-yl)phenyl)-N4-methyl-8-phenyl-6,8-dihydro-5H-pyrano[3,4-d]pyrimidine-2,4-diamine]", "values": [{"measurement": "IC50", "setting": "[2]", "result": 60, "unit": "nM"}]}
{"molecule": "CCNc1nc(Nc2ccc(-n3cnc(Cl)c3)c(OC)c2)nc2c1CCOC2c1ccc(F)cc1", "note": "(stereo not shown) [Example 88A, N2-(4-(4-chloro-1H-imidazol-1-yl)-3-methoxyphenyl)-N4-ethyl-8-(4-fluorophenyl)-6,8-dihydro-5H-pyrano[3,4-d]pyrimidine-2,4-diamine]", "values": [{"measurement": "IC50", "setting": "[2]", "result": 4.5, "unit": "nM"}]}
{"molecule": "CCNc1nc(Nc2ccc(-n3cnc(Cl)c3)c(OC)c2)nc2c1CCOC2c1ccc(F)cc1", "note": "(stereo not shown) [Example 88B, N2-(4-(4-chloro-1H-imidazol-1-yl)-3-methoxyphenyl)-N4-ethyl-8-(4-fluorophenyl)-6,8-dihydro-5H-pyrano[3,4-d]pyrimidine-2,4-diamine]", "values": [{"measurement": "IC50", "setting": "[1]", "result": "10 to 100", "unit": "nM"}]}
{"molecule": "CCN(C)c1nc(Nc2ccc(-n3cnc(Cl)c3)c(OC)c2)nc2c1CCOC2c1ccc(F)cc1", "note": "(stereo not shown) [Example 89, N2-(4-(4-chloro-1H-imidazol-1-yl)-3-methoxyphenyl)-N4-ethyl-8-(4-fluorophenyl)-N4-methyl-6,8-dihydro-5H-pyrano[3,4-d]pyrimidine-2,4-diamine]", "values": [{"measurement": "IC50", "setting": "[1]", "result": "10 to 100", "unit": "nM"}]}
